pIC50: −log10 of the molar value.
Each molecule was assayed against T1, Pol theta (1-899) (Homo sapiens, UniProt O75417) (assay: Pol theta ATPase activity, NADH oxidation-coupled enzymatic assay (ATPase NADH coupling: Standard Screening: hPolQ)). Conditions: Pol theta (1-899) 5 nM, NADH oxidation-coupled ATPase assay; compounds of Table 3.
T1 construct: Pol theta (1-899) (5 nM) in assay buffer
Assay type: biochemical
Procedure, shortened: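 Rates of ATP hydrolysis taken from 60-min A340 traces of NADH oxidation via PK/LDH coupling, then fit four-parameter for IC50, Hill slope and max inhibition. Enzyme (5 nM, 1-899) and compounds preincubated 15 min before ATP 100 μM and 50-thymine ssDNA 300 nM (stock, equal volume added).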

T1 sequence (O75417 1-899): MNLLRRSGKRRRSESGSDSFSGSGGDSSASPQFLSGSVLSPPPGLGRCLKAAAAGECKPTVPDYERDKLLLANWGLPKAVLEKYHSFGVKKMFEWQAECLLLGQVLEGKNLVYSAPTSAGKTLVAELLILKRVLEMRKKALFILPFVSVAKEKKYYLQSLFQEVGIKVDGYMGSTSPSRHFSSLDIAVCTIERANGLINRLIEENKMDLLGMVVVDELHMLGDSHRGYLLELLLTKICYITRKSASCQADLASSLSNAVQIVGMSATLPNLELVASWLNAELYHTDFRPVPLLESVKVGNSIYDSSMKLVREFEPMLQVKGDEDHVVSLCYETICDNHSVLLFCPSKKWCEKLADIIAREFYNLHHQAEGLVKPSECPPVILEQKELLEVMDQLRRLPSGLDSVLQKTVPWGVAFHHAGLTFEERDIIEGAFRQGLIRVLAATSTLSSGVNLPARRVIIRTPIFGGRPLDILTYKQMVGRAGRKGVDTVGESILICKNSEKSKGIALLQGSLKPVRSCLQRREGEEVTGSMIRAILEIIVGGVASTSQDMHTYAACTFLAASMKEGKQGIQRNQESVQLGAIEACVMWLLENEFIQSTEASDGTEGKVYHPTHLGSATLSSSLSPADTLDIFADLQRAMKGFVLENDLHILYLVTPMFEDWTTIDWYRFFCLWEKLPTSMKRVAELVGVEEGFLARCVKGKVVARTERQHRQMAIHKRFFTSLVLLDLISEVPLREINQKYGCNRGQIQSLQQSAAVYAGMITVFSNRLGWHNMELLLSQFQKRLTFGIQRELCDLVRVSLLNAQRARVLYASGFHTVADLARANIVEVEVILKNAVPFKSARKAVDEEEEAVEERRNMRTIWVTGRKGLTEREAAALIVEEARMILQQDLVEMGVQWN

SMILES | pIC50
CNC(=O)c1ccc(-c2cc(C)ncc2C(=O)Nc2nnc(OC)s2)cc1 [Example 402, N-(5-methoxy-1,3,4-thiadiazol-2-yl)-6-methyl-4-[4-(methylcarbamoyl)phenyl]pyridine-3-carboxamide] | 5.00 to 6.00
COc1nnc(NC(=O)c2ccccc2-c2cc(Cl)ncc2OC)s1 [Example 291, 2-(2-chloro-5-methoxypyridin-4-yl)-N-(5-methoxy-1,3,4-thiadiazol-2-yl)benzamide] | ≥ 6.70
COc1nnc(NC(=O)c2cnc(C)cc2-c2ccc(F)c(C(F)(F)F)c2)s1 [Example 450, 4-[4-fluoro-3-(trifluoromethyl)phenyl]-N-(5-methoxy-1,3,4-thiadiazol-2-yl)-6-methylpyridine-3-carboxamide] | ≥ 6.70
COc1cnc(C)cc1-c1cc(C)ncc1C(=O)Nc1nnc(OC2CC=CC2)s1 [Example 240, N-(5-(cyclopent-3-en-1-yloxy)-1,3,4-thiadiazol-2-yl)-5′-methoxy-2′,6-dimethyl-[4,4′-bipyridine]-3-carboxamide] | ≥ 6.70
COc1nnc(NC(=O)c2cnc(C)cc2-c2cccc(CC#N)c2)s1 [Example 477, 4-[3-(cyanomethyl)phenyl]-N-(5-methoxy-1,3,4-thiadiazol-2-yl)-6-methylpyridine-3-carboxamide] | 5.00 to 6.00
COc1nnc(NC(=O)c2cnc(C)cc2-c2ccc3c(c2)CCO3)s1 [Example 380, 4-(2,3-dihydro-1-benzofuran-5-yl)-N-(5-methoxy-1,3,4-thiadiazol-2-yl)-6-methylpyridine-3-carboxamide] | 5.00 to 6.00
COc1nnc(NC(=O)c2cnc(C)cc2-c2cccc(CC(N)=O)c2)s1 [Example 472, 4-[3-(carbamoylmethyl)phenyl]-N-(5-methoxy-1,3,4-thiadiazol-2-yl)-6-methylpyridine-3-carboxamide] | 5.00 to 6.00
COc1nnc(NC(=O)c2cnc(C)cc2-c2ccc3cn[nH]c3c2)s1 [Example 338, 4-(1H-indazol-6-yl)-N-(5-methoxy-1,3,4-thiadiazol-2-yl)-6-methylnicotinamide] | 5.00 to 6.00
CNC(=O)c1cncc(-c2cc(C)ncc2C(=O)Nc2nnc(OC)s2)c1 [Example 339, N3′-(5-methoxy-1,3,4-thiadiazol-2-yl)-N5,6′-dimethyl-[3,4′-bipyridine]-3′,5-dicarboxamide] | 5.00 to 6.00
COc1cnc(Cl)cc1-c1cc(C)ncc1C(=O)Nc1nnc(OC2CCCN(C3COC3)C2)s1 (centres unmarked) [Example 250, 2′-chloro-5′-methoxy-6-methyl-N-(5-((1-(oxetan-3-yl)piperidin-3-yl)oxy)-1,3,4-thiadiazol-2-yl)-[4,4′-bipyridine]-3-carboxamide] | ≥ 6.70
COc1nnc(NC(=O)c2cnc(C)cc2-c2cccc(-c3ccn(C)n3)c2)s1 [Example 453, N-(5-methoxy-1,3,4-thiadiazol-2-yl)-6-methyl-4-[3-(1-methyl-1H-pyrazol-3-yl)phenyl]pyridine-3-carboxamide] | 5.00 to 6.00
COc1nnc(NC(=O)c2cnc(C)cc2-c2ccc(C(C)(C)C)cc2)s1 [Example 356, 4-(4-(tert-butyl)phenyl)-N-(5-methoxy-1,3,4-thiadiazol-2-yl)-6-methylnicotinamide] | 5.00 to 6.00
COc1nnc(NC(=O)c2cnc(C)cc2-c2ccc(F)c(OC)c2)s1 [Example 330, 4-(4-fluoro-3-methoxyphenyl)-N-(5-methoxy-1,3,4-thiadiazol-2-yl)-6-methylpyridine-3-carboxamide] | 5.00 to 6.00
COc1nnc(NC(=O)c2cnc(C)cc2-c2ccnc(C(F)(F)F)c2)s1 [Example 467, N-(5-methoxy-1,3,4-thiadiazol-2-yl)-6-methyl-2′-(trifluoromethyl)-[4,4′-bipyridine]-3-carboxamide] | 6.00 to 6.30
COc1nnc(NC(=O)c2nnc(C)cc2-c2cc(Cl)ncc2OC)s1 [Example 294, 4-(2-chloro-5-methoxypyridin-4-yl)-N-(5-methoxy-1,3,4-thiadiazol-2-yl)-6-methylpyridazine-3-carboxamide] | 6.30 to 6.70
Cc1cc(-c2cc(Cl)ncc2OC(F)F)c(C(=O)Nc2nnc(O[C@H]3CCC[C@@H](O)C3)s2)cn1 (single isomer, unassigned) [Example 253] | ≥ 6.70

Same assay, conditions: Table 4; Pol theta (1-899) 5 nM, ATP, dT50 ssDNA

SMILES | pIC50
COc1cnc(Cl)cc1-c1cc(C)ncc1C(=O)Nc1nnc(OCC2CCOC2C)s1 (centres unmarked) [Example 74, 2′-chloro-5′-methoxy-6-methyl-N-(5-((2-methyltetrahydrofuran-3-yl)methoxy)-1,3,4-thiadiazol-2-yl)-(4,4′-bipyridine)-3-carboxamide] | ≥ 6.70
COc1nnc(NC(=O)c2cnc(C)cc2-c2cc(C)ncc2Cl)s1 [Example 41, 5′-chloro-N-(5-methoxy-1,3,4-thiadiazol-2-yl)-2′,6-dimethyl-(4,4′-bipyridine)-3-carboxamide] | ≥ 6.70
COc1cnc(Cl)cc1-c1cc(C)ncc1C(=O)Nc1nnc(OC2CCC2)s1 [Example 11, 2′-chloro-N-(5-cyclobutoxy-1,3,4-thiadiazol-2-yl)-5′-methoxy-6-methyl-(4,4′-bipyridine)-3-carboxamide] | ≥ 6.70
CCCOc1nnc(NC(=O)c2cnc(C)cc2-c2cc(Cl)ncc2OC)s1 [Example 37, 2′-chloro-5′-methoxy-6-methyl-N-(5-propoxy-1,3,4-thiadiazol-2-yl)-(4,4′-bipyridine)-3-carboxamide] | ≥ 6.70
COc1cnc(Cl)cc1-c1cc(C)ncc1C(=O)Nc1nnc(OCC(C)(C)F)s1 [Example 19, 2′-chloro-N-(5-(2-fluoro-2-methylpropoxy)-1,3,4-thiadiazol-2-yl)-5′-methoxy-6-methyl-(4,4′-bipyridine)-3-carboxamide] | ≥ 6.70

Same assay, conditions: Table 5; Pol theta (1-899) 5 nM, ATP, dT50 ssDNA

SMILES | pIC50
COc1cnc(Cl)cc1-c1cc(C)ncc1C(=O)Nc1nnc(O[C@H]2CCC23COC3)s1 (single isomer, unassigned) [Example 136] | ≥ 6.70
COc1cnc(Cl)c(F)c1-c1cc(C)ncc1C(=O)Nc1nnc(O[C@H]2CCOC2)s1 [Example 81, 2′-chloro-3′-fluoro-5′-methoxy-6-methyl-N-(5-(((S)-tetrahydrofuran-3-yl)oxy)-1,3,4-thiadiazol-2-yl)-(4,4′-bipyridine)-3-carboxamide] | ≥ 6.70
COc1cnc(Cl)c(F)c1-c1cc(C)ncc1C(=O)Nc1nnc(O[C@@H]2CCC[C@@H](O)C2)s1 (single isomer, unassigned) [Example 157] | ≥ 6.70
COc1cnc(Cl)c(F)c1-c1cc(C)ncc1C(=O)Nc1nnc(O[C@H]2CCO[C@@H]2C)s1 (single isomer, unassigned) [Example 165] | ≥ 6.70
COc1cnc(Cl)c(F)c1-c1cc(C)ncc1C(=O)Nc1nnc(O[C@H]2COC3(CC3)C2)s1 (single isomer, unassigned) [Example 210] | ≥ 6.70
COc1cnc(Cl)cc1-c1cc(C)ncc1C(=O)Nc1nnc(O[C@@H]2COCC2(F)F)s1 (single isomer, unassigned) [Example 127] | ≥ 6.70
COc1cnc(Cl)cc1-c1cc(C)ncc1C(=O)Nc1nnc(OC2CC3(COC3)C2)s1 [Example 135, N-(5-((2-oxaspiro (3.3)heptan-6-yl)oxy)-1,3,4-thiadiazol-2-yl)-2′-chloro-5′-methoxy-6-methyl-(4,4′-bipyridine)-3-carboxamide] | ≥ 6.70

Same assay, conditions: Table 5; values given as bound; Pol theta (1-899) 5 nM, ATP, dT50 ssDNA

SMILES | pIC50
COc1nnc(NC(=O)c2ccn(-c3cc(Cl)ncc3OC)n2)s1 [Example 235, 1-(2-chloro-5-methoxypyridin-4-yl)-N-(5-methoxy-1,3,4-thiadiazol-2-yl)-1H-pyrazole-3-carboxamide] | < 5.00

Reference: patent US20240287080A1 (IDEAYA Biosciences Inc., priority 2021, published 2024)
